Molecules are shown by their SMILES. Entries after “also recorded” stand apart in the source; their conditions may differ. Read-outs that look alike come from different tables or passages of the source.

As usually defined, the Ki is a measure of affinity in units of concentration, obtained from inhibition or displacement. As usually defined, the DC50 is the concentration giving 50% degradation. A low value points to degradation at low concentration. The IC50 is the point on the concentration scale where inhibition reaches its midpoint.

The target of one series is ERK1. As to conditions: cited from earlier work.
For another series, the target named is ERK2. As to conditions: cited from earlier work.
Series [1] has as its system BRAF mutant and RAS mutant cell lines. More on the design: method as in PMID 29247021, PMID 28939558. As to conditions: preclinical studies; cited from earlier work.
Series [2] concerns ERK1/2. The series can be described thus: Western blot ERK1/2 protein degradation assay in A375 cells. Type of series: cell-based, human. As to the method: (§1) A375, HCT116, Calu-6, and B16-F10 cells were purchased from American Type Culture Collection (ATCC) and cultured in DMEM high glucose media (SH30022.01, Cytiva, Shanghai, China) supplemented with 10% fetal bovine serum (10099-144, Gibco, Carlsbad, CA, USA) and 1% penicillin/streptomycin (Solarbio, Beijing, China) in an incubator at 37 °C with 5% CO2.
Cells were cultured under the indicated conditions as described in “Cell culture”. Cells were seeded in 6-well plates (3516, Corning, New York, NY, USA). Compounds were dissolved in DMSO for storage (10 mM). Following compound treatment, cells were washed with PBS, scraped from the plate, and lysed using cell lysis buffer (Applygen, Beijing, China). After the protein in the cell lysate was quantified via the BCA quantification method, the samples were placed in a metal bath at 100 °C and heated for 5 min. Cell lysates were separated using a 10% SDS–PAGE gel and transferred to PVDF membranes (Merck Millipore, Burlington, MA, USA). The PVDF membrane was blocked with 5% nonfat dry milk in TBST for one hour. The PVDF membrane was transferred to the antibody diluent and incubated overnight at 4 °C. PVDF membranes were washed three times with TBST for 5 min each and then incubated with the appropriate HRP-conjugated secondary antibody for 1 h at room temperature. After washing three more times with TBST, the PVDF membrane was stained with a hypersensitive ECL chemiluminescence reagent (Biodragon, Beijing, China) and then imaged with Tanon 5200. Grayscale quantitative analysis was performed using ImageJ software. Statistical analysis was performed using GraphPad Prism 8. DC50 and Dmax values were fitted using a four-parameter [inhibitor] versus response and reported directly from the Prism output. Mean ± SD and unpaired t tests were performed in GraphPad Prism.

Series [3] relates to ERK1/2. The series can be described thus: Western blot ERK1/2 protein degradation assay in HCT116 cells. Type of series: cell-based, human. As to the method:
A375, HCT116, Calu-6, and B16-F10 cells were purchased from American Type Culture Collection (ATCC) and cultured in DMEM high glucose media (SH30022.01, Cytiva, Shanghai, China) supplemented with 10% fetal bovine serum (10099-144, Gibco, Carlsbad, CA, USA) and 1% penicillin/streptomycin (Solarbio, Beijing, China) in an incubator at 37 °C with 5% CO2. Cells were cultured under the indicated conditions as described in “Cell culture”. Cells were seeded in 6-well plates (3516, Corning, New York, NY, USA). Compounds were dissolved in DMSO for storage (10 mM). Following compound treatment, cells were washed with PBS, scraped from the plate, and lysed using cell lysis buffer (Applygen, Beijing, China). After the protein in the cell lysate was quantified via the BCA quantification method, the samples were placed in a metal bath at 100 °C and heated for 5 min. Cell lysates were separated using a 10% SDS–PAGE gel and transferred to PVDF membranes (Merck Millipore, Burlington, MA, USA). The PVDF membrane was blocked with 5% nonfat dry milk in TBST for one hour. The PVDF membrane was transferred to the antibody diluent and incubated overnight at 4 °C. PVDF membranes were washed three times with TBST for 5 min each and then incubated with the appropriate HRP-conjugated secondary antibody for 1 h at room temperature. After washing three more times with TBST, the PVDF membrane was stained with a hypersensitive ECL chemiluminescence reagent (Biodragon, Beijing, China) and then imaged with Tanon 5200. Grayscale quantitative analysis was performed using ImageJ software. Statistical analysis was performed using GraphPad Prism 8. DC50 and Dmax values were fitted using a four-parameter [inhibitor] versus response and reported directly from the Prism output. Mean ± SD and unpaired t tests were performed in GraphPad Prism.

In series [4] the test system is ERK1/2. The series can be described thus: Western blot ERK1/2 protein degradation assay in Calu-6 cells. In kind it is cell-based, human. The note with it: 48 h, Western blot and grayscale quantification. The method, then:
(§2) A375, HCT116, Calu-6, and B16-F10 cells were purchased from American Type Culture Collection (ATCC) and cultured in DMEM high glucose media (SH30022.01, Cytiva, Shanghai, China) supplemented with 10% fetal bovine serum (10099-144, Gibco, Carlsbad, CA, USA) and 1% penicillin/streptomycin (Solarbio, Beijing, China) in an incubator at 37 °C with 5% CO2. Cells were cultured under the indicated conditions as described in “Cell culture”. Cells were seeded in 6-well plates (3516, Corning, New York, NY, USA). Compounds were dissolved in DMSO for storage (10 mM). Following compound treatment, cells were washed with PBS, scraped from the plate, and lysed using cell lysis buffer (Applygen, Beijing, China). After the protein in the cell lysate was quantified via the BCA quantification method, the samples were placed in a metal bath at 100 °C and heated for 5 min. Cell lysates were separated using a 10% SDS–PAGE gel and transferred to PVDF membranes (Merck Millipore, Burlington, MA, USA). The PVDF membrane was blocked with 5% nonfat dry milk in TBST for one hour. The PVDF membrane was transferred to the antibody diluent and incubated overnight at 4 °C. PVDF membranes were washed three times with TBST for 5 min each and then incubated with the appropriate HRP-conjugated secondary antibody for 1 h at room temperature. […] Grayscale quantitative analysis was performed using ImageJ software. […]

In series [5] the test system is ERK1/2. The series can be described thus: Western blot ERK1/2 protein degradation assay in B16-F10 cells. In kind it is cell-based. The note with it: B16-F10 murine melanoma cells, 48 h. As to the method: as §2
(A western blot detects proteins with antibodies after separation by electrophoresis.)

Series [6] concerns A375 cells. The series can be described thus: Cell proliferation (CCK8) assay, A375. Type of series: cell-based. As to conditions: Homo sapiens, A-375, A375, 72 h, read-out: IC50 (growth inhibition, cytotoxicity). The method, then: as §1
(§3) A 96-well plate (3599, Corning, New York, NY, USA) was inoculated with 100 μL of complete medium containing 10,000 cells, and the experimental, control, and blank groups were established. Three parallel wells were used per concentration. After 10 h, the media from the experimental and control groups were replaced with a compound containing the indicated concentration of the complete medium. Cells were incubated for 72 h before 10 μL of CCK8 reagent (CA1210, Solarbio, Beijing, China) was added to each well and incubated for 1 h. Using a microplate reader (Tecan, Mannendorf, Switzerland), the absorbance at 450 nm was measured. The IC50 values were determined using GraphPad Prism 8 and nonlinear regression curve fitting.

A further series deals with HCT116 cells. The series can be described thus: Cell proliferation (CCK8) assay, HCT116. Type of series: cell-based, human. The note with it: HCT116, 72 h, read-out: IC50 (growth inhibition, cytotoxicity). The method, then:
as §1, §3

Another series deals with Calu-6 cells. Put plainly: Cell proliferation (CCK8) assay, Calu-6. Type of series: cell-based. As to conditions: Homo sapiens, Calu-6, 72 h, read-out: IC50 (growth inhibition, cytotoxicity). As to the method:
as §1, §3

Series [7] relates to A375 cells. Put plainly: Transwell migration assay. Type of series: cell-based, human. As to conditions: 24 h. As to the method: A total of 100 µL of FBS-free DMEM high-glucose medium containing 20,000 cells was added to the upper layer of the Transwell chamber of a 24-well plate (3422, Corning, New York, NY, USA), and a complete medium containing 10% FBS was added to the lower layer. The experimental group and the control group were established. The control group used DMSO (DMSO concentration in the culture medium was no more than 0.5% in each well), and the specified concentration of compounds was added to the medium of the experimental group. The cells were then placed in an incubator for 24 h. The cells were washed with PBS, the cells in the upper layer of the Transwell chamber were wiped off with a cotton swab, and the cells were fixed with cold methanol for 15 min. The cells were stained with crystal violet reagent and observed and photographed under a microscope. Then, crystal violet was washed with 33% acetic acid and the absorbance was measured at a wavelength of 590 nm. Graphing with GraphPad Prism 8 after counting cells was performed.

For the next series, the system named is HCT116 tumor. The series can be described thus: HCT116 subcutaneous xenograft model in nude mice. In kind it is in vivo. As to the method:
Male BALB/c nude mice of around 8 weeks old were purchased from Charles River (Beijing, China). Nude mice were raised in SPF-grade animal rooms and had access to water and food ad libitum. HCT116 colorectal cancer cells were grown in DMEM supplemented with 10% fetal calf serum and 1% penicillin/streptomycin under standard cell culture conditions. HCT116 xenografts were prepared by subcutaneously injecting 5× 10^6 cells suspended in PBS into the right flank of each male BALB/c nude mouse. Tumor growth was monitored via caliper measurement, and volume was calculated using the following equation: 0.5 × max (length/width) × min (length/width) × min (length/width). When the tumors reached an average of approximately 100 mm^3, the mice were randomized into groups of five. The mice were injected intraperitoneally once a day at doses of 6, 12, 25 mg/kg compound B1-10J and 25 mg/kg 5-FU. Body weights and tumor volumes were measured every 2–3 days. All studies were appropriately statistically powered.

For the next series, the system named is HCT116 mouse xenografts. More on the design: method as in PMID 27227380. As to conditions: cited from earlier work.
In another series the test system is tumor. Further details: method as in PMID 28376306. As to conditions: daily dose of 50 mg/kg; cited from earlier work.

Regarding `CC(C)Nc1cc(-c2c[nH]c(C(=O)N[C@H](CO)c3cccc(Cl)c3)c2)c(Cl)cn1` [BVD-523], the results for the Ki at ERK1 and on ERK2 were below 0.3 nM and 0.04 nM, respectively. The anticancer activity entry in series [1] was “demonstrated anticancer activity”.
`Cc1cccc(CN2C(=O)c3cc(-c4nc(Nc5ccnc(C#CCCN(C)CCCCCCCCCCNc6cccc7c6C(=O)N(C6CCC(=O)NC6=O)C7=O)c5)ncc4C)cn3C[C@H]2C)n1` (stereo partly shown) [Compound B1-10J]: the “time after which ERK1/2 protein level returned to normal” value in the series on ERK1/2 [2] (1 μM) is above 48 h. The “time at which ERK1/2 degradation nearly reached its highest level” value in the series on ERK1/2 [2] (1 μM) and in the series on ERK1/2 [3] (1 μM) was 24 h in each case. The “time at which ERK1/2 protein began to degrade” value in the series with ERK1/2 [2] (1 μM) and in the series with ERK1/2 [3] (1 μM) was 6 h in each case. The “ERK1/2 degradation with/without MG132 and MLN4924” value in the series on ERK1/2 [2] (24 h, B1-10J 1 μM, MG132 1 μM, MLN4924 1 μM) is “only degraded by B1-10J alone”. In addition, the “concentration dependence of ERK1/2 degradation (hook effect)” value with ERK1/2 [2] (24 h, large range of concentrations) is “typical “hook” effect”. Besides, the “ERK1/2 degradative activity (in words)” value in the series with ERK1/2 [2] (48 h, Western blot) is “slightly increased DC50; also recorded: effective ERK1/2 degraders”; in the series on ERK1/2 [5], “weak degradative activity”. Also, the DC50 with ERK1/2 [2] (48 h, Western blotting and grayscale quantification) is 498 ± 369 nM; in the series on ERK1/2 [3] (48 h, Western blot and grayscale quantification), 102 nM; with ERK1/2 [4], 85 nM. Further, the “duration of ERK1/2 degradation” value with ERK1/2 [3] (1 μM) is given as “up to 72 h”. Further, the IC50 with A375 cells [6] is above 30000 nM; with HCT116 cells, 2100 nM; with HCT116 cells (Homo sapiens, HCT-116, 72 h) it was 2200 nM; in the series with Calu-6 cells, 15900 nM. The “decrease of migration rate” value in the series on A375 cells [7] (1 μM, crystal violet absorbance 590 nm) is recorded as “more than 50%”. Further, the “cell migration (in words)” value with A375 cells [7] (Transwell chamber) is listed as “dose-dependently inhibited; also recorded: decreased markedly; also recorded: significantly prevented the migration”. Also, the tumor growth inhibition entry with HCT116 tumor (25 mg/kg daily, intraperitoneal, up until day 19) is listed as “approximately 50%”. Also, the “tumor growth inhibition, dose dependence” value in the series on HCT116 tumor (6, 12, 25 mg/kg Q.D., intraperitoneal) is “dose-dependent manner”. The “antitumor effect (in words)” value in the series with HCT116 tumor (daily dose of 25 mg/kg, intraperitoneal, 25 mg/kg) is “more effective at a 25 mg/kg dose than 5-FU”. Also, the “body weight / tolerability” value with HCT116 tumor (nude mice with HCT116 xenograft, during treatment) is “well-tolerated”.
Turning to `Cn1nccc1Nc1nccc(-c2ccn([C@H](CO)c3ccc(Cl)c(F)c3)c(=O)c2)n1` [GDC-0994, (S)-1-(1-(4-Chloro-3-fluorophenyl)-2-hydroxyethyl)-4-(2-((1-methyl-1H-pyrazol-5-yl)amino)pyrimidin-4-yl)pyridin-2(1H)-one], the IC50 is […] in the series with ERK1 and […] in the series on ERK2. Moreover, in the series on HCT116 mouse xenografts, the antitumor activity entry is on record as “potent antitumor activity”.
With `Cc1cccc(CN2C(=O)c3cc(-c4nc(Nc5ccnn5C)ncc4C)cn3C[C@H]2C)n1` [compound 35], the IC50 in the series on ERK2 is below 0.3 nM. The antitumor effect result in the series on tumor is recorded as “significant tumor regression”.
